# Measured values reported in US7727736B2, “Soluble phospholipids for use in clotting factor assays” (The University of North Carolina at Chapel Hill, priority 2003, dated 2010).
# Columns and labels:
# [1] = tested on: plasma; assay: Activated partial thromboplastin time (aPTT) assay; format: biochemical
# Description: Activated partial thromboplastin time assays were done using an optical detection method to determine clotting time. Two reaction mixtures were created. Mixture A had kaolin in concentrations ranging from 50 g/L to 500 g/L and either phospholipid vesicles (ranging from 0.67 to 240 μM) or C6PS (ranging from 5 μM to 5250 μM) in buffer of 20 mM HEPES (pH 7.4), 150 mM NaCl. Mixture B was 25 mM calcium chloride in a buffer of 20 mM HEPES (pH 7.4), 150 mM NaCl. Plasma, Mixture A, and Mixture B were all incubated at 37° C. for 3 minutes. Mixture A was added to plasma and incubated for 3 minutes at 37° C. Buffer B was added and the optical density was measured. Clotting was detected as an increase in absorbance.
# As expected, lipid vesicles shortened the Kaolin induced clotting time in a dose-dependent fashion by as much as 100 seconds. C6PS gave a dose dependent shortening in the clotting time, but the largest decrease was 13 seconds. We speculated that the Kaolin might interfere with C6PS. Since the purpose of Kaolin is to activate the contact factors of coagulation (high molecular weight kininogen, factor XII, and factor XI), we substituted 30 nM activated factor XI for Kaolin in the assay described above.
# [2] = molecular target: T1, FVa2 (Homo sapiens, UniProt P12259); assay: Native gel electrophoresis (Ferguson analysis), C6PS bound to FVa2; format: binding; details: 400 μM C6PS
# T1 construct: from tissue; host or cells: fresh frozen human plasma (American Red Cross Center, Durham, N.C.)
# T1 sequence (P12259 29-737 limits assumed): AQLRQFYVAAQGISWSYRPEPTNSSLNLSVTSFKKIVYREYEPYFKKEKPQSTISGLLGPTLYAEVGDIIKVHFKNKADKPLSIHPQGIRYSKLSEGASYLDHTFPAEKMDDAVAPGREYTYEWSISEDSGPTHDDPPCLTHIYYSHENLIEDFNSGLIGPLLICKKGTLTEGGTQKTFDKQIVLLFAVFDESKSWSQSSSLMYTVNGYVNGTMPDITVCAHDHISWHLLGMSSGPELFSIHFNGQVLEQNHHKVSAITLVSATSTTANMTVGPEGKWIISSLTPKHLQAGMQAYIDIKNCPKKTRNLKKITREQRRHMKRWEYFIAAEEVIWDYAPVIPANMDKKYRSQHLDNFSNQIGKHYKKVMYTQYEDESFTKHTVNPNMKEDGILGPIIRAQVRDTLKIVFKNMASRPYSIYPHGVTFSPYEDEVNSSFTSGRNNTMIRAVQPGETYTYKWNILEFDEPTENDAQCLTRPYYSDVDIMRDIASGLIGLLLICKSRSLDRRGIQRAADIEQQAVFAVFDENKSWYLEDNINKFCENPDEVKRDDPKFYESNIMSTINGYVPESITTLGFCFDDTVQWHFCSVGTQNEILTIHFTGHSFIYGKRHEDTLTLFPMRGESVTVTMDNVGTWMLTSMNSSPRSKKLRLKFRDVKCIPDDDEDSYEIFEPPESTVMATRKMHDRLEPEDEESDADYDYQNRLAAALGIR
# T1 sequence (P12259 1574-2224 limits assumed): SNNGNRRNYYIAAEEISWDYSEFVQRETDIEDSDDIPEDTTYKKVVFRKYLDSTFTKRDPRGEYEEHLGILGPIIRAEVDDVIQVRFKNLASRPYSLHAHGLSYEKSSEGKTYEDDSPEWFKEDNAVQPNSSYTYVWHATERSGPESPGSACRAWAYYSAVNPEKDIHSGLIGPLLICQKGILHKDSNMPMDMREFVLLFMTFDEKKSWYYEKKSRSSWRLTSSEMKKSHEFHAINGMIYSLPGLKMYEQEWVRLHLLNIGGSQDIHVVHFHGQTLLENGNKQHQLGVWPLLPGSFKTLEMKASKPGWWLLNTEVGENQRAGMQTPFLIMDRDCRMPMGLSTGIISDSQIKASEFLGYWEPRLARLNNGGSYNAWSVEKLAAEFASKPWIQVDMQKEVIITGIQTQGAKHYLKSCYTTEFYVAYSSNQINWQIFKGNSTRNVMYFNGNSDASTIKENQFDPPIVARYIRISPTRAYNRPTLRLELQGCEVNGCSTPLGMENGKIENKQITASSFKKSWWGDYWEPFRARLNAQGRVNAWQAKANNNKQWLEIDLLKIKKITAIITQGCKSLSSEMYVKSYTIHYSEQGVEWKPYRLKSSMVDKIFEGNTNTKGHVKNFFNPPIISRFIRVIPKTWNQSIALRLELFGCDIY
# Description: Native Gel Electrophoresis. This method has been used to document the association of blood coagulation proteins in solution (Majumder, et al. (2002) supra; Majumder, et al. (2003) supra). A mixture of 1 nM FXa and 1 nM FVa was incubated at 37° C. for 2 minutes in the presence and absence of 400 μM C6PS and the two samples were run together with known marker proteins (270 kiloDalton-14.2 kiloDalton; SIGMA, St. Louis, Mo.) on five gels (5, 6, 6.5, 7, and 8% total acrylamide with bisacrylamide/acrylamide being 1/29 in all cases) in a BIORAD® MINI-PROTEAN® II minigel apparatus (BIORAD® Corp., Hercules, Calif.) and stained with colloidal Coomassie blue (Mitra, et al. (1994) supra). FXa and FVa, at these same concentrations and in the presence of 400 μM C6PS, were run separately as controls. Protein retardation coefficients, which depend to a good approximation only on the hydrodynamic size and shape of the protein, were determined for both the marker and unknown proteins (Ferguson (1964) Metabolism 13:985-1002). A log-log plot of the retardation coefficient against the molecular weights of the marker proteins produced a linear curve from which the molecular weight of the FVa•FXa complex was determined from its measured retardation coefficient (Bryan (1977) Anal. Biochem. 78(2):513-9). […]
structure (smiles),measurement,setting,value
"CCCCCC(=O)OC[C@H](COP(=O)(O)OC[C@H](N)C(=O)O)OC(=O)CCCCC [C6PS, 1,2-dicaproyl-sn-glycero-3-phospho-L-serine]",maximal shortening of clotting time,[1]; 30 nM activated factor XI substituted for Kaolin,20 s
same,largest shortening of the Kaolin induced clotting time,[1]; Kaolin as activator,13 s
same,molecules of C6PS bound to FVa2 from molecular mass,[2],4.2 molecules
